For assay [1], the system named is histone deacetylase. As to the kind of experiment: Histone deacetylase activity in HT-29 whole cells. Format: cell-based. The settings on record: for total HDAC activity, pure substances: different concentrations, whole HT-29 cells and HT-29 cell lysate, FIG. 16B. As to the method: The cell line HT-29 was used because histone deacetylase is present.
Cell free supernatants of stationary phase bacterial cultures were isolated by centrifugation and filtering in a 0.22 uM filter. HT-29 cells were used 3 days' post confluence and stepped down in 1 mL DTS 24 hours prior to commencement of the experiment. The HT-29 cells were challenged with 10% cell free supernatant diluted in DTS and was is left to incubate for 48 hours. […] extraction kit and samples were snap frozen prior to HDAC activity measurement. HDAC activity was assessed fluorometrically using the Sigma Aldrich (UK) kit.
(§1) Pure cultures of bacteria were grown anaerobically in YCFA broth until they reached their stationary growth phase. Cultures were centrifuged at 5,000×g for 5 minutes and the cell-free supernatant (CFS) was filtered using a […] (Millipore, UK). 1 mL aliquots of the CFS were stored at −80° C. until use. Sodium butyrate, hexanoic and valeric acid were obtained from Sigma Aldrich (UK) and suspensions were prepared in YCFA broth.
(§2) To investigate which metabolites were responsible for the strain-induced HDAC inhibition, different concentrations of hexanoic acid, valeric acid and sodium butyrate were measured for their HDAC inhibition on whole HT-29 cells and on HT-29 cell lysate.

Assay [2] deals with SH-SY5Y neuroblastoma cells. As to the kind of experiment: Cell viability / neuroprotection of SH-SY5Y neuroblastoma cells with or without MPP (CCK-8). Format: cell-based, human. The settings on record: compared to YCFA-MPP+ treated sample, FIG. 15. As to the method: SH-SY5Y neuroblastoma cells were purchased from ECCACC (Cat. no: 94030304) and were grown in MEM (Sigma Aldrich, cat n. M2279) supplemented with Nutrient Mixture F-12 Ham (Sigma Aldrich, cat n. N4888).
Once grown the SH-SY5Y neuroblastoma cells were plated on 96-well plate at 11,000 cells/well and incubated for 2 days. The cells were then transferred to differentiation medium (which contains FBS at 1%) and 10 uM retinoic acid (Sigma Aldrich, cat. n. R2625-100MG). Differentiation medium was replaced every other day and cells were harvested at 7 day of differentiation. Cells were pre-treated with or without MPP (Sigma Aldrich, cat. n. D048-1G) for 8 hours. Subsequently, cells were treated with 10% bacterial supernatant and incubated overnight. Cell viability was measured by using CCK-8 reagent (Sigma Aldrich, Cell Counting Kit—8, cat. n. 96992-3000TESTS-F) and read at 450 nm wavelength.
RA-differentiated SHSY-5Y cells were treated with MPP+, the active metabolite of MPTP, a chemical widely used to mimic in vitro and in vivo some of the features of PD pathology. Cell viability was measured as the rate of mitochondria respiration (FIG. 15).

Assay [3] deals with histone deacetylase. Briefly: Histone deacetylase activity in HT-29 cell lysate. Format: biochemical. Conditions: FIG. 16A/16B. As to the method: as §1, §2

This note sets out measurements from patent US11779613B2, “Compositions comprising a bacterial strain of the genus Megasphera and uses thereof” (CJ BIOSCIENCE, INC., priority 2017, dated 2023).

Regarding `CCCCCC(=O)O` [hexanoic acid], in the assay on histone deacetylase [1], the “total HDAC activity, pure substances” value is on record as “did not show significant inhibitory activity”.
Take `O=c1c(O)c(-c2ccc(O)c(O)c2)oc2cc(O)cc(O)c12` [quercetin, Quercetin]: the “protection from MPP+” value in assay [2] is given as “about 20%”.
`CCCC(=O)[O-].[Na+]` [sodium butyrate, Sodium butyrate]: the “HDAC inhibition, HT29 whole cells” value in the assay with histone deacetylase [1] (FIG. 16A/16B) was “significant (P<0.05) inhibition”. Besides, the “total HDAC activity, pure substances” value in the assay with histone deacetylase [1] is on record as “significant HDAC inhibition”. Moreover, the “HDAC inhibition, HT29 cell lysates” value in the assay with histone deacetylase [3] was “significant (P<0.05) inhibition”.
As for `CCCCC(=O)O` [valeric acid], the results for the “total HDAC activity, pure substances” value with histone deacetylase [1] and in the assay with histone deacetylase [1] (listed as Valeric acid) were “significant HDAC inhibition” and “inhibited total HDAC activity”, respectively.
